Test systems include A498 renal; ACHN renal; BT-549 breast; CAKI-1 renal; EKVX NSCLC; LOX IMVI melanoma; MCF7 breast; MDA-MB-435; TK-10 renal; CCRF-CEM leukemia.
Common to all, as to assay: NCI tumour cell line growth inhibition, 48 h

The structures appear in SMILES notation.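 These data come from cells grown in 96-well plates and exposed to compound for 48 hours at five concentrations. Here, GI50 denotes the concentration required for 50% inhibition of growth. TGI denotes the concentration required for complete inhibition of growth.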

As for `COc1ccc(-c2cc(-c3cccn3C)c(C#N)c(N)n2)cc1OC`, the GI50 was 82.8 µM in the test with A498 renal; over 100 µM in the test on ACHN renal; 64 µM in the test with BT-549 breast; over 100 µM with CAKI-1 renal; over 100 µM in the test on EKVX NSCLC; over 100 µM in the test with LOX IMVI melanoma. Further, the GI50 was 94.3 µM with MCF7 breast, over 100 µM in the test on MDA-MB-435 and over 100 µM in the test with TK-10 renal. Besides, the TGI with A498 renal, in the test with ACHN renal, in the test on BT-549 breast, with CAKI-1 renal, in the test with EKVX NSCLC and with LOX IMVI melanoma was over 100 µM throughout. For the same compound, the TGI in the test on MCF7 breast, with MDA-MB-435 and in the test on TK-10 renal was over 100 µM each time.

For `O=C(CCCN1CC=C(n2c(=O)[nH]c3ccccc32)CC1)c1ccc(F)cc1`, the GI50 in the test on ACHN renal was 45.6 µM; in the test with BT-549 breast, 24.9 µM; with CAKI-1 renal, 21.7 µM; in the test with CCRF-CEM leukemia it was 35.5 µM; in the test on EKVX NSCLC, 16.7 µM; in the test with LOX IMVI melanoma, 26 µM. Also, the figures for the GI50 in the test with MCF7 breast, in the test with MDA-MB-435 and in the test with TK-10 renal were 31.1 µM, 18.1 µM and 87 µM, respectively. In addition, the TGI is over 100 µM in the test on ACHN renal; 86.8 µM with BT-549 breast; 72.5 µM in the test on CAKI-1 renal; over 100 µM with CCRF-CEM leukemia; 80.1 µM with EKVX NSCLC; over 100 µM in the test with LOX IMVI melanoma. For the same compound, the TGI with MCF7 breast is over 100 µM; in the test on MDA-MB-435, 49.5 µM; in the test with TK-10 renal it was over 100 µM.

In the case of `O=C(O)c1cccc(OCCO)c1`, the TGI in the test on A498 renal, with ACHN renal, in the test on BT-549 breast, with CAKI-1 renal, with EKVX NSCLC and in the test on LOX IMVI melanoma was over 100 µM each time. Further, the TGI in the test on MCF7 breast, with MDA-MB-435 and in the test on TK-10 renal was over 100 µM each time.

On to `Nc1nc(Cl)cc(NCCO)n1`, for which the TGI in the test with A498 renal, with ACHN renal, in the test with BT-549 breast, in the test with CAKI-1 renal, in the test on EKVX NSCLC and with LOX IMVI melanoma was over 100 µM each time. Moreover, the TGI with MCF7 breast, in the test on MDA-MB-435 and with TK-10 renal was over 100 µM throughout.

In the case of `C#CC(=O)Nc1cccc(Nc2nc3c(c(NCc4ccccc4)n2)CCCC3)c1`, the GI50 in the test with A498 renal was 0.115 µM; in the test on ACHN renal, under 0.0113 µM; in the test on BT-549 breast, 0.0266 µM; with EKVX NSCLC, 0.34 µM; in the test on LOX IMVI melanoma, under 0.01 µM; in the test with MCF7 breast it was 0.296 µM. In addition, the GI50 in the test with MDA-MB-435 was 1.02 µM; in the test on TK-10 renal it was 1.49 µM. Moreover, the TGI is 0.918 µM with A498 renal; under 0.0317 µM in the test with ACHN renal; 0.0776 µM in the test on BT-549 breast; 1.99 µM with EKVX NSCLC; under 0.01 µM in the test on LOX IMVI melanoma; 1.81 µM in the test with MCF7 breast. Further, the values for the TGI with MDA-MB-435 and with TK-10 renal were 2.24 µM and 2.85 µM, respectively.

For the compound `CSC1(CC(=O)N(C)C)C(=O)Nc2ccccc21` (centres undefined), the TGI in the test with A498 renal, in the test on ACHN renal, with BT-549 breast, in the test on EKVX NSCLC, in the test with LOX IMVI melanoma and in the test with MCF7 breast was over 100 µM in each case. Besides, the TGI in the test with MDA-MB-435 and in the test on TK-10 renal was over 100 µM in each case.

In the case of `O=C(O)c1ccccc1-c1ccccc1C(=O)Nc1ccc2c(c1)Cc1cc(F)ccc1-2`, the TGI was 46 µM in the test with A498 renal; 64.2 µM with ACHN renal; 40.2 µM in the test on BT-549 breast; over 100 µM in the test on CAKI-1 renal; 77.3 µM in the test with EKVX NSCLC; 77.7 µM in the test on LOX IMVI melanoma. Further, the results for the TGI in the test with MCF7 breast, with MDA-MB-435 and with TK-10 renal were 85.5 µM, over 100 µM and 90.9 µM, respectively.

In the case of `O=C(O)Cc1c(O)ccc2ccccc12`, the TGI in the test with A498 renal, in the test on ACHN renal, in the test with BT-549 breast, with CAKI-1 renal, in the test with EKVX NSCLC and in the test with LOX IMVI melanoma was over 100 µM throughout. Besides, the TGI in the test on MCF7 breast, with MDA-MB-435 and with TK-10 renal was over 100 µM each time.

Take `CCN(CC)CCOc1ccc(/C(=C(\C)c2ccc(F)c(OC)c2)c2ccc(Cl)cc2)cc1`: the GI50 in the test on ACHN renal was 2.7 µM; with BT-549 breast, 2.67 µM; in the test on CAKI-1 renal, 2.42 µM; with CCRF-CEM leukemia, 2.96 µM; in the test with EKVX NSCLC, 2.46 µM; with LOX IMVI melanoma, 2.46 µM. Moreover, the values for the GI50 in the test on MCF7 breast, in the test with MDA-MB-435 and in the test with TK-10 renal were 2.17 µM, 2.43 µM and 2.56 µM, respectively. The TGI with ACHN renal came out at 5.31 µM; with BT-549 breast, 5.13 µM; in the test with CAKI-1 renal it was 4.61 µM; in the test on CCRF-CEM leukemia it was 8.55 µM; with EKVX NSCLC, 5.39 µM; with LOX IMVI melanoma, 4.66 µM. Also, the TGI in the test on MCF7 breast is 4.74 µM; in the test on MDA-MB-435 it was 4.61 µM; with TK-10 renal it was 5.31 µM.

The values above are taken from PubChem BioAssay (NCI).
